{"source": "patent EP0254593B1", "about": "“Preparation and uses of interferon-gamma” (KABUSHIKI KAISHA HAYASHIBARA SEIBUTSU KAGAKU KENKYUJO, priority 1986, dated 1988)", "key": {"[1]": {"tested_on": "PC-9", "assay": "Potentialization of cytostatic activity of chemotherapeutics by HuIFN-gamma in vitro", "assay_type": "cell-based, human", "settings": "2880 min", "protocol": "(§1) An aliquot of RPMI 1640 medium supplemented with 15 v/v % fetal calf serum was added with an HuIFN-gamma prepared by the method in Example B-1(3) to a final concentration of 5, 50 or 500 units/ml, and the mixture was inoculated with a malignant human tumor cell to 5×10^5 cell/ml. The resultant was incubated in 5% CO2 incubator at 37°C for three days. As control, the same amount of an HuIFN-gamma preinactivated by 30-minute incubation at 100°C was added to a fresh preparation of the same culture medium, and the mixture was treated similarly as above. After culture, the viable cell was stained with neutral red in accordance with the method as described in Applied Microbiology, Vol.22, No.4, pp.671-677 (1971). Thereafter, the neutral red was eluted with acidified ethanol, and the number of viable cell was determined with the absorbance of the eluate at 540 nm.\n(§2) Cytostatic rate (%) was determined with the following equation: Cytostatic rate (%) = ( 1 -(A)/(B)) × 100 [formula] wherein A designates the number of viable cell in the test system, and B, that in the control.\n(§3) One ml aliquots of a nutrient culture medium prepared in accordance with the method in Experiment 2-2(1) was inoculated with 10^6 cells of a human malignant tumor cell, and the mixture was cultured for one day. The resultant culture was added with 50 units of an HuIFN-gamma prepared by the method in Example B-1(3) and/or 0.1 ml of saline containing a chemotherapeutic, and cultured at 37°C for two days. As control, a saline free of HuIFN-gamma and chemotherapeutic was used. After the culture, the cytostatic rate (%) was determined in accordance with the method in Experiment 2-2(1). The concentration of the chemotherapeutics were as follows: nimustine hydrochloride (ACNU), 1.0×10^-6 g/ml; fluorouracil (5-FU), 1.5×10^-8 g/ml; doxorubicin (ADM), 1.0×10^-10 g/ml; mitomycin C (MMC), 2.5×10^-9 g/ml; and vincristine sulfate (VCR), 1.5×10^-10 g/ml."}, "[2]": {"tested_on": "HLE", "assay": "Potentialization of cytostatic activity of chemotherapeutics by HuIFN-gamma in vitro", "assay_type": "cell-based, human", "settings": "2880 min", "protocol": "as §1, §2, §3"}, "[3]": {"tested_on": "HEp-2 cell", "assay": "Potentialization of cytostatic activity of chemotherapeutics by HuIFN-gamma in vitro", "assay_type": "cell-based, human", "settings": "2880 min", "protocol": "as §1, §2, §3"}, "[4]": {"tested_on": "HeLa", "assay": "Potentialization of cytostatic activity of chemotherapeutics by HuIFN-gamma in vitro", "assay_type": "cell-based, human", "settings": "2880 min", "protocol": "as §1, §2, §3"}, "[5]": {"tested_on": "human breast cancer tissue", "assay": "Cytostatic activity on malignant tumors in vivo (tumor weight)", "parameters": "species or system BALB/c nude mice", "settings": "injected once every day for 20 days; dose/kg/day: HuIFN-gamma 50 units, HuIFN-alpha 500 units, TNF 100 units, MMC 1 mg; control 10.8 g", "protocol": "BALB/c nude mice were implanted at their dorsal area with a segment of human breast cancer tissue. From the time when the tumors grew to about 200 mm^3, the nude mice were injected once every day with one or more HuIFN-gamma prepared by the method in Example B-1(3), a lymphokine derived from human lymphoblastoid cell, and/or a chemotherapeutic in saline solution over a period of 20 days.\nThereafter, the nude mice were sacrificed, and the tumors were weighed.\nAs control, saline was injected similarly as above."}, "[6]": {"settings": "chemotherapeutic with addition (+) of 50 units HuIFN-gamma, two days, same chemotherapeutic concentrations"}, "[7]": {"settings": "single agent, two days: HuIFN-gamma 50 units, ACNU 1.0×10^-6, 5-FU 1.5×10^-8, ADM 1.0×10^-10, MMC 2.5×10^-9, VCR 1.5×10^-10 g/ml"}}, "note": "Structures can show the parent of a compound that is named as a salt.", "data": [{"molecule": "COc1cccc2c1C(=O)c1c(O)c3c(c(O)c1C2=O)C[C@@](O)(C(=O)CO)C[C@@H]3O[C@H]1C[C@H](N)[C@H](O)[C@H](C)O1", "note": "[ADM, doxorubicin]", "values": [{"measurement": "Cytostatic rate (%)", "setting": "[1]; [6]", "value": 72, "unit": "%"}, {"measurement": "Cytostatic rate (%)", "setting": "[1]; [7]", "value": 6, "unit": "%"}, {"measurement": "Cytostatic rate (%)", "setting": "[2]; [6]", "value": 62, "unit": "%"}, {"measurement": "Cytostatic rate (%)", "setting": "[2]; [7]", "value": 7, "unit": "%"}, {"measurement": "Cytostatic rate (%)", "setting": "[3]; [6]", "value": 59, "unit": "%"}, {"measurement": "Cytostatic rate (%)", "setting": "[3]; [7]", "value": 13, "unit": "%"}, {"measurement": "Cytostatic rate (%)", "setting": "[4]; [6]", "value": 64, "unit": "%"}, {"measurement": "Cytostatic rate (%)", "setting": "[4]; [7]", "value": 17, "unit": "%"}]}, {"molecule": "CC[C@]1(O)C[C@H]2CN(CCc3c([nH]c4ccccc34)[C@@](C(=O)OC)(c3cc4c(cc3OC)N(C=O)[C@H]3[C@@](O)(C(=O)OC)[C@H](OC(C)=O)[C@]5(CC)C=CCN6CC[C@]43[C@@H]65)C2)C1", "note": "[VCR, vincristine sulfate]", "values": [{"measurement": "Cytostatic rate (%)", "setting": "[1]; [6]", "value": 66, "unit": "%"}, {"measurement": "Cytostatic rate (%)", "setting": "[1]; [7]", "value": 8, "unit": "%"}, {"measurement": "Cytostatic rate (%)", "setting": "[2]; [6]", "value": 58, "unit": "%"}, {"measurement": "Cytostatic rate (%)", "setting": "[2]; [7]", "value": 10, "unit": "%"}, {"measurement": "Cytostatic rate (%)", "setting": "[3]; [6]", "value": 58, "unit": "%"}, {"measurement": "Cytostatic rate (%)", "setting": "[3]; [7]", "value": 5, "unit": "%"}, {"measurement": "Cytostatic rate (%)", "setting": "[4]; [6]", "value": 65, "unit": "%"}, {"measurement": "Cytostatic rate (%)", "setting": "[4]; [7]", "value": 10, "unit": "%"}]}, {"molecule": "CO[C@@]12[C@H](COC(N)=O)C3=C(C(=O)C(C)=C(N)C3=O)N1C[C@@H]1N[C@@H]12", "note": "[MMC, mitomycin C]", "values": [{"measurement": "Cytostatic rate (%)", "setting": "[1]; [6]", "value": 64, "unit": "%"}, {"measurement": "Cytostatic rate (%)", "setting": "[1]; [7]", "value": 5, "unit": "%"}, {"measurement": "Cytostatic rate (%)", "setting": "[2]; [6]", "value": 65, "unit": "%"}, {"measurement": "Cytostatic rate (%)", "setting": "[2]; [7]", "value": 12, "unit": "%"}, {"measurement": "Cytostatic rate (%)", "setting": "[3]; [6]", "value": 61, "unit": "%"}, {"measurement": "Cytostatic rate (%)", "setting": "[3]; [7]", "value": 10, "unit": "%"}, {"measurement": "Cytostatic rate (%)", "setting": "[4]; [6]", "value": 62, "unit": "%"}, {"measurement": "Cytostatic rate (%)", "setting": "[4]; [7]", "value": 7, "unit": "%"}, {"measurement": "Tumor", "setting": "[5]", "value": "5.1 ± 0.4", "unit": "g"}]}, {"molecule": "Cc1ncc(CNC(=O)N(CCCl)N=O)c(N)n1", "note": "[ACNU, nimustine hydrochloride]", "values": [{"measurement": "Cytostatic rate (%)", "setting": "[1]; [6]", "value": 65, "unit": "%"}, {"measurement": "Cytostatic rate (%)", "setting": "[1]; [7]", "value": 2, "unit": "%"}, {"measurement": "Cytostatic rate (%)", "setting": "[2]; [6]", "value": 63, "unit": "%"}, {"measurement": "Cytostatic rate (%)", "setting": "[2]; [7]", "value": 5, "unit": "%"}, {"measurement": "Cytostatic rate (%)", "setting": "[3]; [6]", "value": 54, "unit": "%"}, {"measurement": "Cytostatic rate (%)", "setting": "[3]; [7]", "value": 4, "unit": "%"}, {"measurement": "Cytostatic rate (%)", "setting": "[4]; [6]", "value": 72, "unit": "%"}, {"measurement": "Cytostatic rate (%)", "setting": "[4]; [7]", "value": 5, "unit": "%"}]}, {"molecule": "O=c1[nH]cc(F)c(=O)[nH]1", "note": "[Example 5-FU, fluorouracil]", "values": [{"measurement": "Cytostatic rate (%)", "setting": "[1]; [6]", "value": 68, "unit": "%"}, {"measurement": "Cytostatic rate (%)", "setting": "[1]; [7]", "value": 10, "unit": "%"}, {"measurement": "Cytostatic rate (%)", "setting": "[2]; [6]", "value": 71, "unit": "%"}, {"measurement": "Cytostatic rate (%)", "setting": "[2]; [7]", "value": 8, "unit": "%"}, {"measurement": "Cytostatic rate (%)", "setting": "[3]; [6]", "value": 67, "unit": "%"}, {"measurement": "Cytostatic rate (%)", "setting": "[3]; [7]", "value": 8, "unit": "%"}, {"measurement": "Cytostatic rate (%)", "setting": "[4]; [6]", "value": 70, "unit": "%"}, {"measurement": "Cytostatic rate (%)", "setting": "[4]; [7]", "value": 12, "unit": "%"}]}]}
